Where “and” joins values, the source holds several entries; their conditions need not be identical. Identical values can stand only once. Like-named read-outs stand apart in the source and are kept apart here.
Columns and labels:
human SCLC NCI-H69 cells = assay: Protection from etoposide-induced cytotoxicity, NCI-H69; assay type: cell-based
Description: Human small cell lung cancer (SCLC) OC—NYH (de Leij et al., 1985) and NCI-H69 cells (Cuttitta et al., 1981) were grown in RPMI-1640 medium supplemented with 10% fetal calf serum, 100 U/mL penicillin-streptomycin at 37° C. in a humidified atmosphere containing 5% CO2 in the dark.
Clonogenic assay was performed essentially as described in Jensen et al., 1993. […] Cells were then plated in 0.3% agar in 6 cm petri dishes with sheep red blood cells as feeder layer in triplicate, and were incubated under the same conditions as described above. Plates were counted after 3 weeks.

human SCLC OC—NYH cells [1] = assay: Clonogenic assay, antagonism of etoposide-induced cytotoxicity; assay type: cell-based; details: 20 μM etoposide, one hour; 20 min pre-exposure
Description: Cells were then plated in 0.3% agar in 6 cm petri dishes with sheep red blood cells as feeder layer in triplicate, and were incubated under the same conditions as described above. Plates were counted after 3 weeks.
20 μM etoposide was then added, and the cells were incubated for one hour. Next, the drugs were washed out and the cells were plated and counted after three weeks as described herein.

human SCLC OC—NYH cells [2] = assay: Alkaline elution assay (DNA breaks); assay type: cell-based
Description: Alkaline elution assay was performed as described in Kohn et al., 1976 with modifications as described in Sehested et al., 1998. Briefly, to assess the ability of NSC 35866 to protect against etoposide-induced DNA breaks, cells were incubated with increasing concentrations of NSC 35866 for 10 minutes, before 3 μM etoposide was added to the samples. The cells were then co-incubated with 3 μM etoposide along with the same concentrations of NSC 35866 for 60 minutes. Some samples contained no etoposide in order to assess whether NSC 35866 induced DNA breaks by itself. After incubation with drug, cells were lysed and the DNA fragments eluted. DNA in the experimental OC—NYH cells was metabolically labelled by ^14C-thymidine incorporation while DNA in the internal control L1210 cells was metabolically labelled by ^3H-thymidine incorporation.
FIG. 9 describes the results of studies of the ability of NSC 35866 to antagonise DNA breaks induced by etoposide in human SCLC OC—NYH cells in a dose dependent manner. Alkaline DNA elution was used to detect DNA fragmentation induced by 3 μM etoposide in the presence of increasing concentrations of NSC 35866 as described herein. H202 treated mouse leukemic L1210 cells were used as internal control for DNA fragmentation. The DNA of the experimental OC—NYH cells was ^14C-labelled while the DNA of the L1210 cells was 3H-labelled.

[3] = target: T1, human topoisomerase II α-DNA covalent complexes (Homo sapiens, UniProt P11388); assay: Topoisomerase II DNA cleavage assay (phenol-chloroform extraction, Δcpm); assay type: biochemical; details: 1000 μM
T1 construct: made in house; host or cells: yeast (over-expressing yeast cells)
Description: In order to determine the ability of NSC 35866 to increase the level of topoisomerase II-DNA covalent complexes on DNA in vitro, a new and highly sensitive topoisomerase II DNA cleavage assay having a numeric readout was developed. […] The DNA substrate is a 950 bp linear ^3H-labelled DNA synthesized by PCR in the presence of ^3H-dATP. […] The DNA fragment was isolated from unincorporated dNTPs by ethanol precipitation at 0.3 M NaCl, followed by washing in 70% ethanol. The specific activity of the fragment was typically 10,000-20,000 cpm/μg. Before starting the assay, a drug dilution series comprising 10× the final drug concentration was made. Reaction mixtures containing 100 ng of the 950 bp linear ^3H-labelled DNA, 300 ng human topoisomerase II q, topoisomerase II cleavage buffer (10 mM TRIS-HCL pH 7.9, 50 mM NaCl, 50 mM KCl, 5 mM MgCl2, 1 mM EDTA, 15 μg/mL BSA and 1 mM Na2ATP), and increasing concentrations of drug in 50 μL reaction volumes were then incubated 10 minutes at 37° C. A “no topoisomerase II” sample and a “no drug” sample were always included as controls. Next, the cleavable complex was trapped by adding 5 μL 10% SDS. After vigorous vortexing, 45 uL TE buffer, pH=8.0, was added to obtain 100 μL per sample. 100 μL phenol:chloroform:isoamyl alcohol (25:24:1) equilibrated with TE buffer, pH=8.0, was then added, and the samples were vortexed vigorously for 30 seconds. Finally, the samples were centrifuged at 20,000 g for 2 minutes and 90 μL of the upper water phase was used for scintillation counting using 15 mL of Ultima gold scintillation fluid (Packard).
In order to establish whether NSC 35866 inhibits the DNA strand passage reaction of topoisomerase II by stabilising a covalent reaction intermediate, a new and highly sensitive topoisomerase II DNA cleavage assay having a numeric read-out was developed. This assay is based on the fact that after extraction with phenol-chloroform, protein-bound DNA is removed from the water phase, while naked DNA remains in the water phase. […] Consequently, in reactions containing topoisomerase II and linear DNA, the ability of compounds to remove DNA from the water phase after phenol-chloroform extraction should reflect their potency as topoisomerase II poisons. This assay was first validated by incubating 100 ng of a linear 950 bp PCR DNA fragment with 300 ng of purified human topoisomerase II α in the presence of increasing concentrations of the etoposide and m-AMSA. The DNA fragment was ^3H labelled by performing PCR in the presence of ^3H-dATP. In these experiments, a “no topoisomerase II” sample was always included to determine the level of radioactivity (DNA) retained in the water-phase when no enzyme is present. Within each experiment, the CPM values retained in the water phase in the topoisomerase II reactions were then subtracted from this background CPM value to give Δcpm. Consequently, the Δcpm values of samples with no drug added represent the background level of topoisomerase II-DNA covalent complexes present in the reaction mixture under the assay conditions, while the Δcpm levels in the presence of drugs represent the levels of poison-induced topoisomerase II-DNA covalent complexes.

[4] = target: T2, wild-type human topoisomerase II α (Homo sapiens, UniProt P11388); assay: Topoisomerase II DNA strand passage assay (kDNA decatenation), wild-type enzyme; assay type: biochemical; details: wild-type enzyme
T2 construct: made in house; host or cells: yeast (over-expressing yeast cells)
Description: Topoisomerase II catalytic activity (DNA strand passage activity) was measured by using a filter-based kDNA decatenation assay as described in Jensen et al., 2002. Briefly, 200 ng ^3H labelled kDNA isolated from C. fasciculata was incubated with increasing concentrations of drug in 20 μL reaction buffer containing 10 mM TRIS-HCl pH 7.7, 50 mM NaCl, 50 mM KCl, 5 mM MgCl2, 1 mM EDTA, 15 μg/mL BSA and 1 mM ATP using two units of purified wild-type or Y165S mutant topoisomerase II α for 20 minutes at 37° C. (where one unit of activity is defined as the amount of enzyme required for complete decatenation in the absence of drug). After addition of 5× stop buffer (5% Sarkosyl, 0.0025% bromophenol blue, and 50% glycerol), unprocessed kDNA network and decatenated DNA mini-circles were separated by filtering, and the amount of unprocessed kDNA in each reaction was determined by scintillation counting.
FIG. 2 describes the results of studies of the inhibition of topoisomerase II DNA strand passage activity by increasing concentrations of NSC 35866. Inhibition of human topoisomerase II α DNA strand passage activity was assessed by decatenation of tritium-labelled Crithidia fasiculata kDNA using a filter-based assay to separate unprocessed kDNA network from decatenated mini-circles. […] Error bars represent SEM of three independent experiments in panel A and two independent experiments in panel B.
Inhibition of human topoisomerase II α DNA strand passage activity was determined by decatenation of tritium labelled Crithidia fasiculata kDNA as described for FIG. 2. Error bars represent SEM of 3 or 4 independent experiments.

topoisomerase II α = topoisomerase II α (Homo sapiens, UniProt P11388); assay: Topoisomerase II ATPase assay (coupled, NADH oxidation); assay type: biochemical; set-up: made in house; host or cells: yeast (over-expressing yeast cells)
Description: The reaction was monitored spectrophotometrically at 340 nm using a Bio-Tek EL808 Ultra Micro plate Reader connected to a computer with KC4 Software installed (Bio-Tek Instruments, U.S.). The change in absorbance was related to ADP production using A340^1M=6220 cm^−1. […] The rate of ATP hydrolysis, V, was determined from the linear part of the curve.
The steady-state rate of ATP hydrolysis was determined using a coupled ATPase assay as described herein. […] Error bars represent SEM of two independent experiments each performed in duplicate.
The steady-state rate of ATP hydrolysis was determined as described in for FIG. 3 and as described herein. In this analysis, the rate of ATP hydrolysis in the absence of drug was set to one in all experiments. Error bars represent SEM of 2 or 3 independent experiments each preformed in duplicate.

topoisomerase II α, sequence (P11388 whole entry): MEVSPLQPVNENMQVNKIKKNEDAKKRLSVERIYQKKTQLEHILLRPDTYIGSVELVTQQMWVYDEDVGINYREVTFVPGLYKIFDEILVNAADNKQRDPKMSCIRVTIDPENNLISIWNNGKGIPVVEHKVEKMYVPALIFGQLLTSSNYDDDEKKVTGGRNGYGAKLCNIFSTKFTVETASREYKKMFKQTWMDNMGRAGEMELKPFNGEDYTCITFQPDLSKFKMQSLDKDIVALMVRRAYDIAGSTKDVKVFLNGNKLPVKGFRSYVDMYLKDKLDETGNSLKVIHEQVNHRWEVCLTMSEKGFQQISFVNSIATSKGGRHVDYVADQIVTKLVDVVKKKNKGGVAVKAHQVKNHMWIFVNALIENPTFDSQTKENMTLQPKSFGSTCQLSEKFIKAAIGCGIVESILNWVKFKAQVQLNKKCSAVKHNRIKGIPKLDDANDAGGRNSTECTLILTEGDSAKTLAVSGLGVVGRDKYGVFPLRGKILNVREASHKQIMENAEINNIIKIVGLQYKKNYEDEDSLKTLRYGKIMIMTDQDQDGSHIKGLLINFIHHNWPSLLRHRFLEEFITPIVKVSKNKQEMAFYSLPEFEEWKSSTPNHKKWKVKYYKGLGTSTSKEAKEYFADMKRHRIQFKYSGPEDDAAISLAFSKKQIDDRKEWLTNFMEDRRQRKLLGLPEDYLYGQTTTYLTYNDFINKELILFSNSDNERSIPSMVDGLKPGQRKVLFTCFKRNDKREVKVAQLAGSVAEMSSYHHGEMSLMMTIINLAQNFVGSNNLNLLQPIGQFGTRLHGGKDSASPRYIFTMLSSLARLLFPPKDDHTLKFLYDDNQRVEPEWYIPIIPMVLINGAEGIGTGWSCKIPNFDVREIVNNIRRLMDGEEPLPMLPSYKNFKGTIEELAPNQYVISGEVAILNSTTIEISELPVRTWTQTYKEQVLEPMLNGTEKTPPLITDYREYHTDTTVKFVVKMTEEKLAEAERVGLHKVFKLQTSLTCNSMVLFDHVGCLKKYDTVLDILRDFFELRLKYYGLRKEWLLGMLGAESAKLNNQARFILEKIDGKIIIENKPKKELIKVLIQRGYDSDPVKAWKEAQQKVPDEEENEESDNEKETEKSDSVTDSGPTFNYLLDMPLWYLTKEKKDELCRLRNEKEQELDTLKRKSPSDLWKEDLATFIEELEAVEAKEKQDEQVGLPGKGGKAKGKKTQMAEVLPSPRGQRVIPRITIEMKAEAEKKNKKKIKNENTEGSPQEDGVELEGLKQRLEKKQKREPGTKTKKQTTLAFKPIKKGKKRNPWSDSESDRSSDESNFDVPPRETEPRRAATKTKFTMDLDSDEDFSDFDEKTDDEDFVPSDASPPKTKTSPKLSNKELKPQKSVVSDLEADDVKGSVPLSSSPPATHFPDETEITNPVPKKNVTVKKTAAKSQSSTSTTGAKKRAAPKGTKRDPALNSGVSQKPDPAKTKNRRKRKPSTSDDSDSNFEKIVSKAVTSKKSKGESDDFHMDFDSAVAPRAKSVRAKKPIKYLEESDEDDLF
T2 sequence (P11388 whole entry): as above
T1 sequence (P11388 whole entry, one chain of several): as the sequence (P11388 whole entry) above

## Nc1nc(SCCc2ccccc2)c2nc[nH]c2n1 [NSC 35866, 2-amino-6-(phenylethylthio)-purine]
Human SCLC NCI-H69 cells
  protection from etoposide-induced cytotoxicity, in words: capable of protecting
Human SCLC OC—NYH cells [1]
  reduction of etoposide-induced cytotoxicity: up to 50 fold
Human SCLC OC—NYH cells [2]; 30 μM, repeated assay
  effect on DNA breaks induced by 3 μM etoposide, in words: no detectable effect
Human SCLC OC—NYH cells [2]; 100 μM
  effect on DNA breaks induced by 3 μM etoposide, in words: no detectable effect
Human SCLC OC—NYH cells [2]; 100 μM, repeated assay
  effect on DNA breaks induced by 3 μM etoposide, in words: no detectable effect
Human SCLC OC—NYH cells [2]; 300 μM, repeated assay
  effect on DNA breaks induced by 3 μM etoposide, in words: partly antagonised
Human SCLC OC—NYH cells [2]; 500 μM
  effect on DNA breaks induced by 3 μM etoposide, in words: partly antagonised
Human SCLC OC—NYH cells [2]; 1000 μM
  effect on DNA breaks induced by 3 μM etoposide, in words: completely antagonised
Human SCLC OC—NYH cells [2]; concentrations up to 1000 μM, no etoposide
  DNA breaks induced by the drug alone, in words: does not induce detectable levels of DNA breaks
[3]
  effect on level of topoisomerase II-DNA covalent complexes, in words: no measurable effect
[4]; FIG. 2-A
  concentrations at which DNA strand passage activity is inhibited: above 250 μM
[4]; FIG. 2-A and FIG. 5
  inhibition of DNA strand passage (decatenation) activity, in words: clearly less potent in comparison with the reference compound ICRF-187
Topoisomerase II α; 300 μM, in the presence of DNA, read-out: inhibition of the total ATPase activity
  inhibition at 300 µM: 75%
Topoisomerase II α; 10 mM DTT in the reaction buffer
  inhibition of ATPase activity in the presence of DTT, in words: could inhibit ATPase activity
Topoisomerase II α; in the presence of DNA (DNA-stimulated), read-out: IC50, inhibition of ATPase activity
  IC50: 50 µM and 30 to 100 µM
Topoisomerase II α; without DNA, read-out: IC50, inhibition of DNA-independent ATPase activity
  IC50: 300 µM

From patent US20090209535A1, “6-ETHER/THIOETHER-PURINES AS TOPOISOMERASE II CATALYTIC INHIBITORS AND THEIR USE IN THERAPY” (TOPOTARGET A/S, priority 2005, published 2009)
